Measurements as given in US20110195896A1 (CASE WESTERN RESERVE UNIVERSITY, priority 2008, published 2011).
Entries after “also recorded” stand apart in the source; their conditions may differ. Like-named read-outs stand apart in the source and are kept apart here.

Assays:
[1] = biological target: IGF Type I receptor (IGFR) (Homo sapiens, UniProt P08069); experiment: Competitive receptor-binding assay, epitope-tagged IGF Type I receptor
Experimental: (§1) Relative activity may be defined by comparison of the dissociation constants (Keq) governing the hormone-receptor binding reaction.
(§2) Receptor-Binding Assays. […] This assay employs the purified epitope-tagged receptor (IR-A, IR-B, or IGFR) using a microtiter-plate antibody-capture assay as known in the art. The epitope tag consists of three tandem repeats of the FLAG epitope. Microtiter strip plates (Nunc Maxisorb) were incubated overnight at 4° C. with anti-FLAG IgG (100 μl/well of […] in phosphate-buffered saline). Binding data were analyzed by a single-site heterologous competition binding model. A corresponding microtiter plate antibody assay using the epitope-tagged IGF Type I receptor was employed to assess cross-binding of analogues to this homologous receptor.

insulin receptor = insulin receptor (Homo sapiens, UniProt P06213); conditions: background; cited from earlier work
[2] = biological target: insulin receptor isoform A (IR-A, HIRA) (Homo sapiens, UniProt P06213); experiment: Competitive receptor-binding assay, 125I-insulin tracer, epitope-tagged receptor antibody capture (IR-A); conditions: ratio of IR-A to IR-B binding
Experimental: as §1, §2

[3] = biological target: insulin receptor isoform B (IR-B, HIRB) (Homo sapiens, UniProt P06213); experiment: Competitive receptor-binding assay, 125I-insulin tracer, epitope-tagged receptor antibody capture (IR-B); conditions: normalized to 100% = binding affinity of wild-type human insulin for IR-A
Experimental: as §1, §2

Sequence of IGF Type I receptor (IGFR) (P08069 31-736 limits assumed): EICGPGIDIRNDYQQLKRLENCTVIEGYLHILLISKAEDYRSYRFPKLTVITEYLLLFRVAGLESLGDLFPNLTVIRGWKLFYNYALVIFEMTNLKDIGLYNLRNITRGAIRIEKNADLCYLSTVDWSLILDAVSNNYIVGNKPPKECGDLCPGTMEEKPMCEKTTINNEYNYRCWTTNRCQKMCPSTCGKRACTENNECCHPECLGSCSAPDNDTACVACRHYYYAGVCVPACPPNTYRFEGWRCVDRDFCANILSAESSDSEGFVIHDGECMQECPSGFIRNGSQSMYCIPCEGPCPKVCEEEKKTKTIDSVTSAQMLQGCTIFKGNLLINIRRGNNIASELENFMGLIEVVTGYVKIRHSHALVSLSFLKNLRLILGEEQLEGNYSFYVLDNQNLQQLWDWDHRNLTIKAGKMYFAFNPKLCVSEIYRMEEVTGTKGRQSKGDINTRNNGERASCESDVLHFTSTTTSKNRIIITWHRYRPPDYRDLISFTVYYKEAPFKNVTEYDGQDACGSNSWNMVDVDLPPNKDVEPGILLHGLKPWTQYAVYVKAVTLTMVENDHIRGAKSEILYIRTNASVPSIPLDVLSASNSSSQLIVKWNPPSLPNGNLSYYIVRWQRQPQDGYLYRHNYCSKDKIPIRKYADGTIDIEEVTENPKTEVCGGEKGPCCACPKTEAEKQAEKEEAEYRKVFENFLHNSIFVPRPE
Sequence of IGF Type I receptor (IGFR) (P08069 741-1367 partner limits assumed): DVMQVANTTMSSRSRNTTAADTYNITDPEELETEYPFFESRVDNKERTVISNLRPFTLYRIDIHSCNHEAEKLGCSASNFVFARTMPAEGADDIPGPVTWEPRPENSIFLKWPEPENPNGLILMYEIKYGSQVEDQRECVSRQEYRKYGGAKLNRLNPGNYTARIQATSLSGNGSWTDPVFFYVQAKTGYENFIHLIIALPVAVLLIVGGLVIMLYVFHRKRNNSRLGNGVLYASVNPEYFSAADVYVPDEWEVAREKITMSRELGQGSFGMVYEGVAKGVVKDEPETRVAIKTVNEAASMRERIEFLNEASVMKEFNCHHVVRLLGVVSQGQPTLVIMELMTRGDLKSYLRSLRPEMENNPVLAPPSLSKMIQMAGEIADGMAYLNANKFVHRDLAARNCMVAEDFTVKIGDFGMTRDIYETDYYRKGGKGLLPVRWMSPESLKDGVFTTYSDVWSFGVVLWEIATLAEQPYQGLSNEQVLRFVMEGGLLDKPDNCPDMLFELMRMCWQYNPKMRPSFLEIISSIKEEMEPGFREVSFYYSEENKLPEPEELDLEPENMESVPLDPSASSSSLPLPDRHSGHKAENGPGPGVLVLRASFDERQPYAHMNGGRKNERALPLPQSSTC

CC[C@H](C)[C@@H]1NC(=O)CNC(=O)[C@H](CCCNC(=N)N)NC(=O)[C@H](CCCNC(=N)N)NC(=O)[C@@H]2CCCN2C(=O)CNC(=O)CNC(=O)CNC(=O)[C@H]([C@@H](C)O)NC(=O)[C@@H]2CCCN2C(=O)[C@H](CC(=O)O)NC(=O)[C@H]([C@@H](C)O)NC(=O)[C@H](Cc2ccc(O)cc2)NC(=O)[C@H](Cc2ccccc2)NC(=O)[C@H](Cc2ccccc2)NC(=O)CNC(=O)[C@H](CCCNC(=N)N)NC(=O)[C@H](CCC(=O)O)NC(=O)CNC(=O)[C@@H]2CSSC[C@@H](C(=O)N[C@@H](CC(N)=O)C(=O)O)NC(=O)[C@H](Cc3ccc(O)cc3)NC(=O)[C@H](CC(N)=O)NC(=O)[C@H](CCC(=O)O)NC(=O)[C@H](CC(C)C)NC(=O)[C@H](CCC(N)=O)NC(=O)[C@H](Cc3ccc(O)cc3)NC(=O)[C@H](CC(C)C)NC(=O)[C@H](CO)NC(=O)[C@@H]3CSSC[C@H](NC(=O)[C@H](CCC(N)=O)NC(=O)[C@H](CCC(=O)O)NC(=O)[C@H](C(C)C)NC1=O)C(=O)N[C@@H](CSSC[C@H](NC(=O)[C@H](CC(C)C)NC(=O)[C@H](Cc1c[nH]cn1)NC(=O)[C@H](CCC(N)=O)NC(=O)[C@H](CC(N)=O)NC(=O)[C@@H](NC(=O)[C@@H](N)Cc1ccccc1)C(C)C)C(=O)NCC(=O)N[C@@H](CO)C(=O)N[C@@H](Cc1c[nH]cn1)C(=O)N[C@@H](CC(C)C)C(=O)N[C@@H](C(C)C)C(=O)N[C@@H](CCC(=O)O)C(=O)N[C@@H](C)C(=O)N[C@@H](CC(C)C)C(=O)N[C@@H](Cc1ccc(O)cc1)C(=O)N[C@@H](CC(C)C)C(=O)N[C@@H](C(C)C)C(=O)N2)C(=O)N[C@@H](Cc1c[nH]cn1)C(=O)N[C@@H](CO)C(=O)N[C@@H]([C@@H](C)CC)C(=O)N3 [[His^A8, Asp^B28, Pro^B29]-SCI]
Kd [1]: 27.6 ± 1.18 nM

Lantus ®
IGFR Relative Affinity ([1]; absolute number relative to IGF-1 (=1)): 0.015
IGFR Relative Affinity ([1]; absolute number relative to unmodified human insulin (=1)): 2-3
Kd ([1]; read-out: IGFR Kd): 3.14 ± 0.44 nM

insulin-like growth factor II [IGF-II]
affinity for either IR isoform relative to human insulin (insulin receptor): < 20%
selectivity / preference for IR-A relative to IR-B [2]: between fourfold and tenfold; also recorded: greater than twofold preference for IR-A
RELATIVE AFFINITY INSULIN RECEPTOR Isoform B [3]: 4%
